Results reported in US4260630A, “Skin diseases” (priority 1977, dated 1981).

How the values were obtained:
cutaneous tissue = conditions: in vivo; cited from earlier work
DNA = conditions: cited from earlier work
Saccharomyces cerevisiae [1] = experiment: Repair of photoinduced lesions in yeast (repair mutants, agar holding); type: cell-based; conditions: wild-type cells
Excerpt: Biophys. Acta, 395, 393-404.
Consequently, it appears that the excision repair pathway in wild type and rad9-4 cells is essential in AHR for both compounds.

[2] = Comparison of activity with compounds of analogous structure; conditions: comparison with the compounds of the invention
Excerpt: V. In order to compare the activity of the compounds of the invention with compounds having an analogous structure

[3] = system: skin of homozygote albino mice strain XVII nc/Z; experiment: Chronic topical application on the ears of mice plus 365 nm UV irradiation (tumors, skin reactions); type: in vivo
Protocol: The experiments were effected on groups of 40 mice, male and female.
After 115 topical applications of psoralen, followed each time by 10 minutes of irradiation (cumulative doses of 2.07×10^6 J/m^2), 100% of the animals developed a tumor; 50% having tumors on two ears.
3-CPs was also tested intraperitoneally (36 injections of 0.4 mg each over a period of 7 weeks).
In all these experiments the U.V. lamp was of the type of HPW 125 W, manufactured by Philips.

Saccharomyces cerevisiae [4] = experiment: Induction of nuclear back mutations (his- to His+) in yeast; conditions: vs 3-CPs or angelicin plus 365 nm light
Protocol: A wild-type strain 211-1aM (29) of Saccharomyces cerivisiae was used, and the following mutants derived from it: S24-12c rad2-20 deficient in excision repair and S25-13b rad9-4 likely to be blocked in a recombinational repair pathway; a double mutant S 2057NL-24 rad2-20 -rad9-4 clone B was obtained by tetrad analysis of a heterozygote [formula]
The media and culture conditions used were as described in D. Averbeck, E. Moustacchi, (1975) Biochim. Biophys. Acta, 395, 393-404.
10^6 cells/ml in saline (0.9% NaCl) were treated for 30 minutes with the drugs at a final concentration of 10 μg/ml and 1.2% ethanol present.
A Philips HPW 125 culot Edison high pressure mercury lamp was used with maximal output at the wavelength 365 nm. The irradiation dose measured by actinometry was 10 J/m^2 per sec., using the following set up: 10 ml of actinometer solution (or the cell suspension, usually 1×10^6 cells/ml), stirred continuously by a magnetic stirrer, were irradiated at room temperature in an open Petri dish of 10 cm diameter at a distance of 10 cm from the center of the light bulb which was mounted horizontally. A 2 mm thick pyrex glass sheet (20×25 cm) was placed in the center of the light beam to cut out UV light of wavelength below 340 nm. […]

[5] = 115 topical applications, cumulative doses 2.07×10^6 J/m^2

3,4-dibenzo-5,8-dimethylpsoralen
photosensitizing activity (cutaneous tissue): inactive or to induce very weak photosensitivity

Cc1cc2cc3c(C)c(C)c(=O)oc3c(C)c2o1 [3,4,5',8-tetramethylpsoralen]
photosensitizing activity (cutaneous tissue): inactive or to induce very weak photosensitivity

Cc1cc2cc3c4c(c(=O)oc3c(C)c2o1)CCCC4 [3,4-cyclohexeno-5',8-dimethylpsoralen]
photosensitizing activity (cutaneous tissue): inactive or to induce very weak photosensitivity

Cc1cc2cc3cc(C)c(=O)oc3c(C)c2o1 [3,5',8-trimethylpsoralen]
photosensitizing activity (cutaneous tissue): inactive or to induce very weak photosensitivity

Cc1cc2cc3ccoc3cc2oc1=O [3-methylpsoralen]
photosensitizing activity (cutaneous tissue): inactive or to induce very weak photosensitivity

CCCCc1c(C)c2cc3cc(C)oc3c(C)c2oc1=O [3-n-butyl-4,5',8-trimethylpsoralen]
photosensitizing activity (cutaneous tissue): inactive or to induce very weak photosensitivity

Cc1cc2cc3c(C)cc(=O)oc3c(C)c2o1 [4,5',8-trimethylpsoralen]
reactivity with DNA in vitro relative to 8-MOP (DNA; in vitro): about 12 times more reactive

O=c1ccc2ccc3occc3c2o1 [angelicin]
binding to DNA and RNA (DNA): bind equally well to DNA and RNA | kinetics of agar holding recovery (AHR) (Saccharomyces cerevisiae [1]): same kinetics of AHR

CC(C)(C)OC(=O)c1cc2cc3ccoc3cc2oc1=O [psoralen 3-t-butylcarboxylate]
activity [2]: inactive

O=c1ccc2cc3ccoc3cc2o1 [psoralen]
animals developing a tumor on ears ([3]; 24 applications, cumulative dose 4.5×10^5 J/m^2): 3% | animals developing a tumor on ears [3, 5]: 100% | animals having tumors on two ears [3, 5]: 50% | cutaneous reactions ([3]; chronic topical, two ears, 365 nm UV): significant cutaneous reactions, such as an erythema, followed by intensive chronic inflammation even followed by necrosis | dose dependence of tumor development on ears ([3]; mouse, in vivo): dose dependent | kinetics of agar holding recovery (AHR) (Saccharomyces cerevisiae [1]): same kinetics of AHR | photosensitizing activity (cutaneous tissue): most effective photo-sensitizers | effectiveness in inducing nuclear back mutations (his- to His+) relative to monofunctional furocoumarins or 254 nm UV alone (Saccharomyces cerevisiae [4]): at least 10 fold
